In ChEMBL document CHEMBL5678810:

Key:
[1] = target: Serine/threonine-protein kinase 16 (Homo sapiens) (UniProt O75716); experiment: Inhibition of T7 bacteriophage fused human STK16 at 10 uM by KINOMEscan analysis relative to control
[2] = target: Bone morphogenetic protein receptor type-1B (Homo sapiens) (UniProt O00238); experiment: Inhibition of T7 bacteriophage fused human BMPR1B at 10 uM by KINOMEscan analysis relative to control
[3] = target: Serine/threonine-protein kinase Nek1 (Homo sapiens) (UniProt Q96PY6); experiment: Inhibition of T7 bacteriophage fused human NEK1 at 10 uM by KINOMEscan analysis relative to control; values are per cent of control
[4] = target: Serine/threonine-protein kinase Nek3 (Homo sapiens) (UniProt P51956); experiment: Inhibition of T7 bacteriophage fused human NEK3 at 10 uM by KINOMEscan analysis relative to control
[5] = target: Serine/threonine-protein kinase TNNI3K (Homo sapiens) (UniProt Q59H18); experiment: Inhibition of T7 bacteriophage fused human TNNI3K at 10 uM by KINOMEscan analysis relative to control
[6] = target: Cyclin-dependent kinase 11B (Homo sapiens) (UniProt P21127); experiment: Inhibition of T7 bacteriophage fused human CDC2L1 at 10 uM by KINOMEscan analysis relative to control
Chain of Cyclin-dependent kinase 11B (Homo sapiens) (P21127 whole entry, the tested form may be a part): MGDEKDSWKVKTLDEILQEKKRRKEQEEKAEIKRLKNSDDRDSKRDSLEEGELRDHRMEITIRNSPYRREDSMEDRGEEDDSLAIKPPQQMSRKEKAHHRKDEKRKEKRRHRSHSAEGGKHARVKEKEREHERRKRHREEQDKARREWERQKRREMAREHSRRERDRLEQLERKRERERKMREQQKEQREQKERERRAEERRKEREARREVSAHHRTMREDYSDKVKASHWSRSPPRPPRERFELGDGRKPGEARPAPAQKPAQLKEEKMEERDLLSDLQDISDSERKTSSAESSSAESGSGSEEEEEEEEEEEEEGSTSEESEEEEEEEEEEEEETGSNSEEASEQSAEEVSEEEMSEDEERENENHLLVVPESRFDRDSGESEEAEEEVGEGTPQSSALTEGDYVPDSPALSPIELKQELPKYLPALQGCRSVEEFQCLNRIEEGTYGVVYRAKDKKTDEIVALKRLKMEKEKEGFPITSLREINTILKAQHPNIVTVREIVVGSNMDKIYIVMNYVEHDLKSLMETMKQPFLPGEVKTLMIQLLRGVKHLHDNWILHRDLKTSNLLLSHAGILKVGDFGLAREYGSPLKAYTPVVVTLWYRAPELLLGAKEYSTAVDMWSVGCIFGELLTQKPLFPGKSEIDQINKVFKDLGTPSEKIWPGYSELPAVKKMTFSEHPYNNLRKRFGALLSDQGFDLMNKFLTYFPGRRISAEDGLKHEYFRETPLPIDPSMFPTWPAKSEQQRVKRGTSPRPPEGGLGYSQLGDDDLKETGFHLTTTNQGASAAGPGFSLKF

[7] = target: Phosphatidylinositol 4-phosphate 3-kinase C2 domain-containing subunit beta (Homo sapiens) (UniProt O00750); experiment: Inhibition of T7 bacteriophage fused human PIK3C2B at 10 uM by KINOMEscan analysis relative to control
Chain of Phosphatidylinositol 4-phosphate 3-kinase C2 domain-containing subunit beta (Homo sapiens) (O00750 whole entry, the tested form may be a part): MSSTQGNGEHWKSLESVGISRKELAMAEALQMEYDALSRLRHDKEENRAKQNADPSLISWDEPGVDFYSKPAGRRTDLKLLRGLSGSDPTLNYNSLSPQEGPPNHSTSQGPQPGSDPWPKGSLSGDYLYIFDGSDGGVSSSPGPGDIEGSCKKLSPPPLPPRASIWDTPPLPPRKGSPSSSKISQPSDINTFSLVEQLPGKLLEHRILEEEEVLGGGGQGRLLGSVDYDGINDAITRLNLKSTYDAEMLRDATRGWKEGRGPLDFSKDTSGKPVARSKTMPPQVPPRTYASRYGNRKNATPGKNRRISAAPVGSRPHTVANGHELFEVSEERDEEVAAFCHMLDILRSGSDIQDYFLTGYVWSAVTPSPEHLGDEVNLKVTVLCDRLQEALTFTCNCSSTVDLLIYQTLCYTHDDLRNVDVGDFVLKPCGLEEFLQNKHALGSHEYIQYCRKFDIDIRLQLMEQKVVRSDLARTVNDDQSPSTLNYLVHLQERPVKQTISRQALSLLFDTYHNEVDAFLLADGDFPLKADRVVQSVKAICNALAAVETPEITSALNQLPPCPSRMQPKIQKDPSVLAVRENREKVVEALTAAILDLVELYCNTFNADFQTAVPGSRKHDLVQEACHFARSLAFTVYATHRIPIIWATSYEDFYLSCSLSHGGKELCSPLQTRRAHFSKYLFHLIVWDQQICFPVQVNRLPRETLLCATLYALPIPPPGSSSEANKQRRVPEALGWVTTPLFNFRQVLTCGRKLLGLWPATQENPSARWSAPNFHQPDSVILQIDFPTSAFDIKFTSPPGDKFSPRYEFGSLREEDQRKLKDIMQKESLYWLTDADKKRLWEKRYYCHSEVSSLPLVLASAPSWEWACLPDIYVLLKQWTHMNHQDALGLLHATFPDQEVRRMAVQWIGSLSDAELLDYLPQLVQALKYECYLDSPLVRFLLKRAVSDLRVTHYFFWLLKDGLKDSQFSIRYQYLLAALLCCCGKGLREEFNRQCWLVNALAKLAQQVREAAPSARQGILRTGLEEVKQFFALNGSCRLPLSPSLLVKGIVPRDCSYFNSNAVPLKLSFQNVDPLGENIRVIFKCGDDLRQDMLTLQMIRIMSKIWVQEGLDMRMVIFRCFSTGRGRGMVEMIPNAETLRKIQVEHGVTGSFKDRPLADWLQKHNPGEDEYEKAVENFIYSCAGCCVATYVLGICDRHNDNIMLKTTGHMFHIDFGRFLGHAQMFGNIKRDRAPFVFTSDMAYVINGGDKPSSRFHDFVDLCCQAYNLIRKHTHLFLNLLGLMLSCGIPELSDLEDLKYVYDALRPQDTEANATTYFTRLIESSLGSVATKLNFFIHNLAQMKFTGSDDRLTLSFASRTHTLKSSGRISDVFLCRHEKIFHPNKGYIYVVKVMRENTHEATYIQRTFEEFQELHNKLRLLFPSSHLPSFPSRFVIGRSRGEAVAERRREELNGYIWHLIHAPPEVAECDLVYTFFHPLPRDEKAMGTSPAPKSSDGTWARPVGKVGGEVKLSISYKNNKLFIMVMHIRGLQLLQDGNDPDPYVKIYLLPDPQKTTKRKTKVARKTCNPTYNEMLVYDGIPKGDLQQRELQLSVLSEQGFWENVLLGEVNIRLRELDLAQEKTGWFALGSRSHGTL

[8] = target: Fibroblast growth factor receptor 4 (Homo sapiens) (UniProt P22455); experiment: Inhibition of T7 bacteriophage fused human FGFR4 at 10 uM by KINOMEscan analysis relative to control; values are per cent of control
Chain of Fibroblast growth factor receptor 4 (Homo sapiens) (P22455 22-802 limits assumed): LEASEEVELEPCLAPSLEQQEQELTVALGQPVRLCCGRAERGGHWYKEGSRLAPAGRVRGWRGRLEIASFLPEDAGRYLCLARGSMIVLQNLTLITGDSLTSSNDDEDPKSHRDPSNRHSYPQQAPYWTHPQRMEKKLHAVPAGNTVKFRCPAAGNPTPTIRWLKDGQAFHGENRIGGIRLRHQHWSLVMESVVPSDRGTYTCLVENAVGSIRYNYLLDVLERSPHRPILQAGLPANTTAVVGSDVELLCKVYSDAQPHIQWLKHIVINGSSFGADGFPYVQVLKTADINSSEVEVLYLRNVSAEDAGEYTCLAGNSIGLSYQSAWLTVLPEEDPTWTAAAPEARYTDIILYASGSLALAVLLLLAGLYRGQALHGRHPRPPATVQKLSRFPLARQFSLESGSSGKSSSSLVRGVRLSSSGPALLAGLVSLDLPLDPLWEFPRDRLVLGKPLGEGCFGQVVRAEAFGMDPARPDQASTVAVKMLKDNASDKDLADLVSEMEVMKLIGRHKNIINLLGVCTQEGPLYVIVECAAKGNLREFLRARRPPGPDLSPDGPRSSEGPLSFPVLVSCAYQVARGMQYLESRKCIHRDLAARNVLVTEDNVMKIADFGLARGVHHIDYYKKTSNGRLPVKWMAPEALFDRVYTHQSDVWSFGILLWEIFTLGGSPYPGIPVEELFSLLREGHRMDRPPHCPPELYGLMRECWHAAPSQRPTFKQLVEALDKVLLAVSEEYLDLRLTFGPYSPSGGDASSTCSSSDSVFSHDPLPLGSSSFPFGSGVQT

[9] = target: Rhodopsin kinase GRK1 (Homo sapiens) (UniProt Q15835); experiment: Inhibition of T7 bacteriophage fused human GRK1 at 10 uM by KINOMEscan analysis relative to control; values are per cent of control
[10] = target: Serine/threonine-protein kinase ULK2 (Homo sapiens) (UniProt Q8IYT8); experiment: Inhibition of T7 bacteriophage fused human ULK2 at 10 uM by KINOMEscan analysis relative to control
[11] = target: Tyrosine-protein kinase JAK1 (Homo sapiens) (UniProt P23458); experiment: Inhibition of T7 bacteriophage fused human JAK1JH2 pseudokinase domain at 10 uM by KINOMEscan analysis relative to control
[12] = test system: Epidermal growth factor receptor (Homo sapiens), P00533 [UNDEFINED MUTATION]; experiment: Inhibition of T7 bacteriophage fused human EGFR E746/A750del mutant at 10 uM by KINOMEscan analysis relative to control; values are per cent of control
[13] = target: Serine/threonine-protein kinase SBK1 (Homo sapiens) (UniProt Q52WX2); experiment: Inhibition of T7 bacteriophage fused human SBK1 at 10 uM by KINOMEscan analysis relative to control
[14] = target: Tyrosine-protein kinase Mer (Homo sapiens) (UniProt Q12866); experiment: Inhibition of T7 bacteriophage fused human MERTK at 10 uM by KINOMEscan analysis relative to control
[15] = test system: Phosphatidylinositol 4,5-bisphosphate 3-kinase catalytic subunit alpha isoform (Homo sapiens), P42336 [E545A]; experiment: Inhibition of T7 bacteriophage fused human PIK3CA E545A mutant at 10 uM by KINOMEscan analysis relative to control
[16] = target: Muscle, skeletal receptor tyrosine-protein kinase (Homo sapiens) (UniProt O15146); experiment: Inhibition of T7 bacteriophage fused human MUSK at 10 uM by KINOMEscan analysis relative to control; values are per cent of control
[17] = target: Interferon-induced, double-stranded RNA-activated protein kinase (Homo sapiens) (UniProt P19525); experiment: Inhibition of T7 bacteriophage fused human PRKR at 10 uM by KINOMEscan analysis relative to control
[18] = target: Tyrosine-protein kinase ABL1 (Homo sapiens) (UniProt P00519); experiment: Inhibition of T7 bacteriophage fused human phosphorylated ABL1 at 10 uM by KINOMEscan analysis relative to control
[19] = target: Protein kinase C theta type (Homo sapiens) (UniProt Q04759); experiment: Inhibition of T7 bacteriophage fused human PRKCQ at 10 uM by KINOMEscan analysis relative to control
[20] = target: Dual specificity tyrosine-phosphorylation-regulated kinase 1A (Homo sapiens) (UniProt Q13627); experiment: Inhibition of T7 bacteriophage fused human DYRK1A at 10 uM by KINOMEscan analysis relative to control; values are per cent of control
[21] = target: Mitogen-activated protein kinase kinase kinase 11 (Homo sapiens) (UniProt Q16584); experiment: Inhibition of T7 bacteriophage fused human MLK3 at 10 uM by KINOMEscan analysis relative to control
[22] = target: Tyrosine-protein kinase Lyn (Homo sapiens) (UniProt P07948); experiment: Inhibition of T7 bacteriophage fused human LYN at 10 uM by KINOMEscan analysis relative to control
[23] = target: Platelet-derived growth factor receptor alpha (Homo sapiens) (UniProt P16234); experiment: Inhibition of T7 bacteriophage fused human PDGFRA at 10 uM by KINOMEscan analysis relative to control
[24] = target: Serine/threonine-protein kinase BRSK1 (Homo sapiens) (UniProt Q8TDC3); experiment: Inhibition of T7 bacteriophage fused human BRSK1 at 10 uM by KINOMEscan analysis relative to control
[25] = target: Serine/threonine-protein kinase 10 (Homo sapiens) (UniProt O94804); experiment: Inhibition of T7 bacteriophage fused human LOK at 10 uM by KINOMEscan analysis relative to control
[26] = target: Serine/threonine-protein kinase PLK2 (Homo sapiens) (UniProt Q9NYY3); experiment: Inhibition of T7 bacteriophage fused human PLK2 at 10 uM by KINOMEscan analysis relative to control
[27] = test system: Tyrosine-protein kinase ABL1 (Homo sapiens), P00519 [H396P]; experiment: Inhibition of T7 bacteriophage fused human nonphosphorylated ABL1 H396P mutant at 10 uM by KINOMEscan analysis relative to control
[28] = target: Ephrin type-A receptor 4 (Homo sapiens) (UniProt P54764); experiment: Inhibition of T7 bacteriophage fused human EPHA4 at 10 uM by KINOMEscan analysis relative to control
[29] = target: Serine/threonine-protein kinase TAO2 (Homo sapiens) (UniProt Q9UL54); experiment: Inhibition of TAO2 Lys2 labeling site in human PC-3 cell lysate at 10 uM by KiNativ profiling analysis relative to control; type: subcellular
Chain of Serine/threonine-protein kinase TAO2 (Homo sapiens) (Q9UL54 whole entry, the tested form may be a part): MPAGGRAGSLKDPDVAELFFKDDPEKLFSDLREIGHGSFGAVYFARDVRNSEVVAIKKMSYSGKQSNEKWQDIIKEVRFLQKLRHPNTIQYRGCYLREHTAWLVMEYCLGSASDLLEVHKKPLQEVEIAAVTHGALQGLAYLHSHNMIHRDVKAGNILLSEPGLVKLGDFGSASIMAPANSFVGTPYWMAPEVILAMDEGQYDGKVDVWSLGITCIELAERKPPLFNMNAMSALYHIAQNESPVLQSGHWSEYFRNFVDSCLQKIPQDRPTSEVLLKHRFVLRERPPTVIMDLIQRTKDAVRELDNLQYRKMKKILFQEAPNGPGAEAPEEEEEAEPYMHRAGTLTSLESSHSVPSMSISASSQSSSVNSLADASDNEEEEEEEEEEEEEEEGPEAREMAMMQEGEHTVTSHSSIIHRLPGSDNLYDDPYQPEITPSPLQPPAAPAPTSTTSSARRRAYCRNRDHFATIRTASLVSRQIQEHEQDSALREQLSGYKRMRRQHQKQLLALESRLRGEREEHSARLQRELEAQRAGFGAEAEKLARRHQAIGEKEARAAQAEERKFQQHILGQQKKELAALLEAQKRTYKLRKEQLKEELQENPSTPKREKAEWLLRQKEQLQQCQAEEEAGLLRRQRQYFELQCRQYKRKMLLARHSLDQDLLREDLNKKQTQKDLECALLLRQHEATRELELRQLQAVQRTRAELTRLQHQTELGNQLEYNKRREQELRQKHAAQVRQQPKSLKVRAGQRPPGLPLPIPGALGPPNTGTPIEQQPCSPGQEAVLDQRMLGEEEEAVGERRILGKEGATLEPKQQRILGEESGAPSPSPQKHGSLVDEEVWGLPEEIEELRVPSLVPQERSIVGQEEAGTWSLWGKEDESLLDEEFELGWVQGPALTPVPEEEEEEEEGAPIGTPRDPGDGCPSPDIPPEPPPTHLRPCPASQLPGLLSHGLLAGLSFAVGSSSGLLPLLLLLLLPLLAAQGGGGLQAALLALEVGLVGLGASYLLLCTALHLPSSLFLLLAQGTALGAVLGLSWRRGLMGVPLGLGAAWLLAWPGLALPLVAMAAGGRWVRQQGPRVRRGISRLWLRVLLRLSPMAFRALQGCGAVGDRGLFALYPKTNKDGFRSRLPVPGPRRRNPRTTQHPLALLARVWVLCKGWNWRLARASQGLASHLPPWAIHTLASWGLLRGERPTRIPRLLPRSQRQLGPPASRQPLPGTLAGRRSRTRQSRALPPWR

[30] = target: Ribosomal protein S6 kinase alpha-1 (Homo sapiens) (UniProt Q15418); experiment: Inhibition of RSK1 domain1 Activation Loop labeling site in human HEL cell lysate at 10 uM by KiNativ profiling analysis relative to control; type: subcellular

Chain of Serine/threonine-protein kinase 16 (Homo sapiens) (O75716 whole entry, the tested form may be a part): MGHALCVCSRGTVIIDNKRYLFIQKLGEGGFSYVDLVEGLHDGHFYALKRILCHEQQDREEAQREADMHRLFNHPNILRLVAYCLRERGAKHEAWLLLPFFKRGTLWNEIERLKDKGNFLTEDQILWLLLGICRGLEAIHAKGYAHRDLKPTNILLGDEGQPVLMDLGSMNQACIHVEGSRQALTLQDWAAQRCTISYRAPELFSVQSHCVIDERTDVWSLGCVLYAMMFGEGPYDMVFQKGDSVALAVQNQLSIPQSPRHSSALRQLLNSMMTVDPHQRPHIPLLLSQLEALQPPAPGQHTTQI

COc1cc(N2CCC(N3CCN(C)CC3)CC2)ccc1Nc1ncc2c(n1)N(C)c1ccccc1C(=O)N2C
inhibition [1]: 62% | inhibition [2]: 76% | residual activity [3]: 83% | inhibition [4]: 100% | inhibition [5]: 100% | inhibition [6]: 84% | inhibition [7]: 100% | residual activity [8]: 28% | residual activity [9]: 91% | inhibition [10]: 67% | inhibition [11]: 92% | residual activity [12]: 72% | inhibition [13]: 100% | inhibition [14]: 100% | inhibition [15]: 98% | residual activity [16]: 99% | inhibition [17]: 84% | inhibition [18]: 82% | inhibition [19]: 100% | residual activity [20]: 99% | inhibition [21]: 100% | inhibition [22]: 100% | inhibition [23]: 100% | inhibition [24]: 81% | inhibition [25]: 100% | inhibition [26]: 100% | inhibition [27]: 100% | inhibition [28]: 89%

COc1cc(C(=O)N2CCC(N3CCN(C)CC3)CC2)ccc1Nc1ncc2c(n1)N(C1CCCC1)c1ccccc1C(=O)N2C
inhibition [29]: 0.3% | inhibition [30]: 0.2%
